Measured values reported in patent US20070027175A1, “Antineoplastic activities of ellipticine and its derivatives” (priority 2005, published 2007).
Like-named read-outs stand apart in the source and are kept apart here.

Legend:
NCI-60 cancer panel = conditions: average across the cell lines of the concentration at which growth is inhibited 50%; unit in the High Conc. footnote; cited from earlier work
Ark myeloma cell line = assay: CellTiter-Glo luminescent cell viability assay, Ark; assay type: cell-based, human; parameters: unit of the concentration uncertain
Method: (§1) The dosage of each derivative was set at 2, 0.2 and 0.02 mM. A cell culture medium control and 0.5% DMSO control was maintained in each experiment. The cell viability was tested each day over a period of five days using the CellTiter-Glo luminescent cell viability assay kit from Promega Co.
(§2) Cell Titer-Glo luminescent cell viability assay kit from Promega Co (Madison, Wis.) was used to determine cell growth inhibition by the various compounds tested. The kit determines cell viability by quantifying the amount of ATP present in the cell culture medium. Presence of ATP signals the presence of metabolically active cells (3). The intensity of luminescence was measured by a computerized luminometer (Promega, Co. Madison, Wis.). Each well was read five times within 30 minutes of adding Cell Titer-Glo reagent mixture.
(§3) Cells were contacted with the antineoplastic agents in ninety six well culture plates. The concentration of each neoplastic agent was maintained a constant. A cell culture medium control and 0.5% DMSO control were maintained in each set of experiments. The cell viability was tested every day using the CellTiter-Glo luminescent cell viability kit from Promega Co. (Madison, Wis.) for a period of five days.

CAG myeloma cell line = assay: CellTiter-Glo luminescent cell viability assay, CAG; assay type: cell-based, human; parameters: unit of the concentration uncertain
Method: as §1, §2, §3

[1] = test system: RPMI8226 myeloma cell line; assay: CellTiter-Glo luminescent cell viability assay, RPMI8226; assay type: cell-based, human; parameters: unit of the concentration uncertain
Method: as §1
Cell Titer-Glo luminescent cell viability assay kit from Promega Co (Madison, Wis.) was used to determine cell growth inhibition by the various compounds tested. The kit determines cell viability by quantifying the amount of ATP present in the cell culture medium. Presence of ATP signals the presence of metabolically active cells (3). The intensity of luminescence was measured by a computerized luminometer (Promega, Co. Madison, Wis.). Each well was read five times within 30 minutes of adding Cell Titer-Glo reagent mixture. […]

U266 myeloma cell line = test system: U266 myeloma cell line; parameters: cell viability (CellTiter-Glo luminescent assay): dose or concentration left out as unconfirmed; conditions: U266
Method: as §1
U266 cell line was one of 12 myeloma cell lines used in screening of anti-myeloma agents. In FIG. 10A, cells were treated with 14 ellipticine derivatives (0.5 mM) obtained from the DTP; control cells were untreated. Ellipticine derivatives are coded with NSC identifiers. For 5 days, cell viability was measured every 24 hours using CellTiter-Glo Luminescent Assay. […] In FIG. 10B, U266 cells, along with six other myeloma cell lines, were co-cultured in direct contact with human fetal bone mesenchymal cells and treated with EPED3 (0.5 mM and 2 mM) or Velcade (0.5 mM); control cells were untreated. Cell proliferation was assessed by MTT assay every 24 hours for 5 days. […] Error bars indicate standard deviation.
as §2, §3

CCCCC(=O)OC[n+]1ccc2c(C)c3[nH]c4ccc(OC)cc4c3c(C)c2c1.[I-] [NSC 637126]
Mean GI50 (NCI-60 cancer panel): −6.40 log^10 molar

O=C(/C=C/c1ccc(Cl)c(Cl)c1)c1ccc(Cl)cc1Cl [NSC 640531]
Mean GI50 (NCI-60 cancer panel): −4.99 log^10 molar

Cc1ccc(S(=O)(=O)N=NC=C2c3ccccc3N(O)c3ccccc32)cc1 [NSC 627891]
Mean GI50 (NCI-60 cancer panel): −5.43 log^10 molar

Nc1ncnc2c1ncn2[C@@H]1C=C(CO)[C@@H](O)[C@H]1O [NSC 316458, Neplanocin A]
Mean GI50 (NCI-60 cancer panel): −5.43 log^10 molar

C[C@@H]1C[C@@H]2OC(=O)[C@]3(C)[C@H]2[C@@H](OC3(C)O)[C@]2(C)C(=O)C=C[C@@H]12 (stereo partly drawn) [NSC 19942, Tenulin]
Mean GI50 (NCI-60 cancer panel): −4.68 log^10 molar

C#CCN(N=O)C(=O)NCCCC(NC(C)=O)C(=O)NCc1ccccc1 (stereo not drawn) [NSC 645583]
Mean GI50 (NCI-60 cancer panel): −4.17 log^10 molar

CN(C)CC1CCCCCC(Br)C1=O.O=C(O)C(=O)O (stereo not drawn) [NSC 130789]
Mean GI50 (NCI-60 cancer panel): −4.96 log^10 molar

O=C1/C(=C/C=C/c2ccccc2)CCC1CNc1ccccc1 (stereo not drawn) [NSC 661238]
Mean GI50 (NCI-60 cancer panel): −4.47 log^10 molar

CNC(=S)NC(=S)N(C)C [NSC 622693]
Mean GI50 (NCI-60 cancer panel): −4.53 log^10 molar

COc1ccc2[nH]c3c(C)c4cc[n+](COC(=O)c5ccccc5)cc4c(C)c3c2c1 [NSC 632620]
Mean GI50 (NCI-60 cancer panel): −6.52 log^10 molar

Cc1c2ccncc2c(C)c2c1[nH]c1ccccc12 [Ellipticine, 5,11-Dimethyl-6H-Pyridol[4,3]carbazole]
cell viability (CellTiter-Glo luminescent assay) (Ark myeloma cell line; 0.02 (unit uncertain), Day 1): 120,709 | cell viability (CellTiter-Glo luminescent assay) (Ark myeloma cell line; 0.02 (unit uncertain), Day 2): 208,608 | cell viability (CellTiter-Glo luminescent assay) (Ark myeloma cell line; 0.02 (unit uncertain), Day 3): 268,420 | cell viability (CellTiter-Glo luminescent assay) (Ark myeloma cell line; 0.02 (unit uncertain), Day 4): 802,063 | cell viability (CellTiter-Glo luminescent assay) (Ark myeloma cell line; 0.02 (unit uncertain), Day 5): 1,049,792 | cell viability (CellTiter-Glo luminescent assay) (Ark myeloma cell line; 0.2 (unit uncertain), Day 1): 125,251 | cell viability (CellTiter-Glo luminescent assay) (Ark myeloma cell line; 0.2 (unit uncertain), Day 2): 230,950 | cell viability (CellTiter-Glo luminescent assay) (Ark myeloma cell line; 0.2 (unit uncertain), Day 3): 331,985 | cell viability (CellTiter-Glo luminescent assay) (Ark myeloma cell line; 0.2 (unit uncertain), Day 4): 877,082 | cell viability (CellTiter-Glo luminescent assay) (Ark myeloma cell line; 0.2 (unit uncertain), Day 5): 1,183,902 | cell viability (CellTiter-Glo luminescent assay) (Ark myeloma cell line; 2 (unit uncertain), Day 1): 86,010 | cell viability (CellTiter-Glo luminescent assay) (Ark myeloma cell line; 2 (unit uncertain), Day 2): 98,439 | cell viability (CellTiter-Glo luminescent assay) (Ark myeloma cell line; 2 (unit uncertain), Day 3): 70,824 | cell viability (CellTiter-Glo luminescent assay) (Ark myeloma cell line; 2 (unit uncertain), Day 4): 44,913 | cell viability (CellTiter-Glo luminescent assay) (Ark myeloma cell line; 2 (unit uncertain), Day 5): 10,996 | cell viability (CellTiter-Glo luminescent assay) (CAG myeloma cell line; 0.02 (unit uncertain), Day 1): 200,429 | cell viability (CellTiter-Glo luminescent assay) (CAG myeloma cell line; 0.02 (unit uncertain), Day 2): 557,030 | cell viability (CellTiter-Glo luminescent assay) (CAG myeloma cell line; 0.02 (unit uncertain), Day 3): 1,243,718 | cell viability (CellTiter-Glo luminescent assay) (CAG myeloma cell line; 0.02 (unit uncertain), Day 4): 2,718,974 | cell viability (CellTiter-Glo luminescent assay) (CAG myeloma cell line; 0.02 (unit uncertain), Day 5): 4,443,641 | cell viability (CellTiter-Glo luminescent assay) (CAG myeloma cell line; 0.2 (unit uncertain), Day 1): 196,263 | cell viability (CellTiter-Glo luminescent assay) (CAG myeloma cell line; 0.2 (unit uncertain), Day 2): 541,300 | cell viability (CellTiter-Glo luminescent assay) (CAG myeloma cell line; 0.2 (unit uncertain), Day 3): 1,117,650 | cell viability (CellTiter-Glo luminescent assay) (CAG myeloma cell line; 0.2 (unit uncertain), Day 4): 2,568,444 | cell viability (CellTiter-Glo luminescent assay) (CAG myeloma cell line; 0.2 (unit uncertain), Day 5): 4,443,292 | cell viability (CellTiter-Glo luminescent assay) (CAG myeloma cell line; 2 (unit uncertain), Day 1): 136,450 | cell viability (CellTiter-Glo luminescent assay) (CAG myeloma cell line; 2 (unit uncertain), Day 2): 200,722 | cell viability (CellTiter-Glo luminescent assay) (CAG myeloma cell line; 2 (unit uncertain), Day 3): 234,414 | cell viability (CellTiter-Glo luminescent assay) (CAG myeloma cell line; 2 (unit uncertain), Day 4): 308,480 | cell viability (CellTiter-Glo luminescent assay) (CAG myeloma cell line; 2 (unit uncertain), Day 5): 281,302 | cell viability (CellTiter-Glo luminescent assay) ([1]; 0.02 (unit uncertain), Day 1): 110,290 | cell viability (CellTiter-Glo luminescent assay) ([1]; 0.02 (unit uncertain), Day 2): 244,140 | cell viability (CellTiter-Glo luminescent assay) ([1]; 0.02 (unit uncertain), Day 3): 390,151 | cell viability (CellTiter-Glo luminescent assay) ([1]; 0.02 (unit uncertain), Day 4): 898,067 | cell viability (CellTiter-Glo luminescent assay) ([1]; 0.02 (unit uncertain), Day 5): 966,857 | cell viability (CellTiter-Glo luminescent assay) ([1]; 0.2 (unit uncertain), Day 1): 107,014 | cell viability (CellTiter-Glo luminescent assay) ([1]; 0.2 (unit uncertain), Day 2): 235,145 | cell viability (CellTiter-Glo luminescent assay) ([1]; 0.2 (unit uncertain), Day 3): 355,794 | cell viability (CellTiter-Glo luminescent assay) ([1]; 0.2 (unit uncertain), Day 4): 774,806 | cell viability (CellTiter-Glo luminescent assay) ([1]; 0.2 (unit uncertain), Day 5): 921,077 | cell viability (CellTiter-Glo luminescent assay) ([1]; 2 (unit uncertain), Day 1): 87,440 | cell viability (CellTiter-Glo luminescent assay) ([1]; 2 (unit uncertain), Day 2): 115,263 | cell viability (CellTiter-Glo luminescent assay) ([1]; 2 (unit uncertain), Day 3): 110,776 | cell viability (CellTiter-Glo luminescent assay) ([1]; 2 (unit uncertain), Day 4): 126,944 | cell viability (CellTiter-Glo luminescent assay) ([1]; 2 (unit uncertain), Day 5): 85,699 | cell viability (CellTiter-Glo luminescent assay) (U266 myeloma cell line; 0.02, Day 1): 31,950 | cell viability (CellTiter-Glo luminescent assay) (U266 myeloma cell line; 0.02, Day 2): 47,812 | cell viability (CellTiter-Glo luminescent assay) (U266 myeloma cell line; 0.02, Day 3): 66,571 | cell viability (CellTiter-Glo luminescent assay) (U266 myeloma cell line; 0.02, Day 4): 115,083 | cell viability (CellTiter-Glo luminescent assay) (U266 myeloma cell line; 0.02, Day 5): 152,839 | cell viability (CellTiter-Glo luminescent assay) (U266 myeloma cell line; 0.2, Day 1): 32,490 | cell viability (CellTiter-Glo luminescent assay) (U266 myeloma cell line; 0.2, Day 2): 47,622 | cell viability (CellTiter-Glo luminescent assay) (U266 myeloma cell line; 0.2, Day 3): 62,648 | cell viability (CellTiter-Glo luminescent assay) (U266 myeloma cell line; 0.2, Day 4): 106,989 | cell viability (CellTiter-Glo luminescent assay) (U266 myeloma cell line; 0.2, Day 5): 132,439 | cell viability (CellTiter-Glo luminescent assay) (U266 myeloma cell line; 2, Day 1): 23,680 | cell viability (CellTiter-Glo luminescent assay) (U266 myeloma cell line; 2, Day 2): 31,682 | cell viability (CellTiter-Glo luminescent assay) (U266 myeloma cell line; 2, Day 3): 33,129 | cell viability (CellTiter-Glo luminescent assay) (U266 myeloma cell line; 2, Day 4): 40,656 | cell viability (CellTiter-Glo luminescent assay) (U266 myeloma cell line; 2, Day 5): 38,403

CSc1nc[nH]c1C(N)=S [NSC 684041]
Mean GI50 (NCI-60 cancer panel): −4.11 log^10 molar

O=C1N(c2ccc(Cl)cc2)C(=O)C2(SC=NN2Cc2ccccc2)N1c1ccc(Cl)cc1 (stereo not drawn) [NSC 630740]
Mean GI50 (NCI-60 cancer panel): −4.26 log^10 molar

Cc1cc2[nH]c3c(C#N)c(-c4ccccc4)c(N=Nc4cccc(C(F)(F)F)c4)c(=O)n3c2cc1C [NSC 699959]
Mean GI50 (NCI-60 cancer panel): −4.53 log^10 molar

C=C1C(OC(=O)/C=C/c2ccccc2)CC(OC(C)=O)C2(C)C1CC1CC(OC(C)=O)C(C)=C(C(OC(C)=O)C2OC(C)=O)C1(C)C (stereo not drawn) [NSC 636859, Cuspidatin C]
Mean GI50 (NCI-60 cancer panel): −4.46 log^10 molar

CCCCCCC(=O)OC[n+]1ccc2c(C)c3[nH]c4ccccc4c3c(C)c2c1 [NSC 637132]
Mean GI50 (NCI-60 cancer panel): −6.09 log^10 molar
